According to ChEMBL document CHEMBL5725638, “3-substituted 5-amino-6H-thiazolo[4,5-d]pyrimidine-2,7-dione compounds for the treatment and prophylaxis of virus infection” (2018):

Biological target: T1, Toll-like receptor 7 (Homo sapiens, UniProt Q9NYK1)
T1 sequence (Q9NYK1 whole entry): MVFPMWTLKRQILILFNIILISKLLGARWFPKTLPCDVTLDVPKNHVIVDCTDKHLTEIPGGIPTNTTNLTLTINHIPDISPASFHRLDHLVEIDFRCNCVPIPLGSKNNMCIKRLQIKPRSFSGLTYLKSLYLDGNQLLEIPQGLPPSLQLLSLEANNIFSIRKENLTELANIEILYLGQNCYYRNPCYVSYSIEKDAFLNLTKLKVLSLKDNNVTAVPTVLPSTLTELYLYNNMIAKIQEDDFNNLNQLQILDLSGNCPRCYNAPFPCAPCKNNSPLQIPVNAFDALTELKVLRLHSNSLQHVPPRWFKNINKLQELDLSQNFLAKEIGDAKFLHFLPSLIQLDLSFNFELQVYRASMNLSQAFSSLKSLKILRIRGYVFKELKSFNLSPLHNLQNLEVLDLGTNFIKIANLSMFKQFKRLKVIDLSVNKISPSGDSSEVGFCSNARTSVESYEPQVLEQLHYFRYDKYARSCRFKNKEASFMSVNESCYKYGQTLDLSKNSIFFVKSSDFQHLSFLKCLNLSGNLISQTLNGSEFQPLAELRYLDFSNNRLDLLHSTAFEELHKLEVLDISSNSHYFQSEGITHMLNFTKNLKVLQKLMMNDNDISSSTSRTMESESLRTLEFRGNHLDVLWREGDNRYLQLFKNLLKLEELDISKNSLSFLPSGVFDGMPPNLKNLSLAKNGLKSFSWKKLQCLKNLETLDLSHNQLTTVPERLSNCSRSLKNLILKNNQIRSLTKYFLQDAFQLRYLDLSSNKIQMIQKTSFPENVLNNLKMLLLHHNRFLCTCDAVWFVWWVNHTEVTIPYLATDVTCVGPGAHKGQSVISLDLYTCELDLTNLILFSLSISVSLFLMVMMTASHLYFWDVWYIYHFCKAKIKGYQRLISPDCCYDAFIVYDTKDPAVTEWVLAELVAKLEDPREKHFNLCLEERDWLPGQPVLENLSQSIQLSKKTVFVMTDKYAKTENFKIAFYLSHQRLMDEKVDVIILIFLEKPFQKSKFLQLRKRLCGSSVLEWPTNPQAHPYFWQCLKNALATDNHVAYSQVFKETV
Experiment: HEK293-Blue-hTLR-7 Cells Ass: A stable HEK293-Blue-hTLR-7 cell line was purchased from InvivoGen (Cat.#: hkb-htlr7, San Diego, Calif., USA). These cells were designed for studying the stimulation of human TLR7 by monitoring the activation of NF-κB. A SEAP (secreted embryonic alkaline phosphatase) reporter gene was placed under the control of the IFN-β[…] minimal promoter fused to five NF-κB and AP-1-binding sites. The SEAP was induced by activating NF-κB and AP-1 via stimulating HEK-Blue hTLR7 cells with TLR7 ligands. Therefore the reporter expression was regulated by the NF-κB promoter upon stimulation of human TLR7 for 20 hours. The cell culture supernatant SEAP reporter activity was determined using QUANTI-Blue kit (Cat.#: rep-qb1, Invivogen, San Diego, Calif., USA) at a wavelength of 640 nm, a detection medium that turns purple or blue in the presence of alkaline phosphatase.HEK293-Blue-hTLR7 cells were incubated at a density of 250,000 ~ 450,000 cells/mL in a volume of 180 μL in a 96-well plate in Dulbecco's Modified Eagle's medium (DMEM) containing 4.5 g/L glucose, 50 U/mL penicillin, 50 […], 100 […], 2 mM L-glutamine, 10% (v/v) heat-inactivated fetal bovine serum for 24 h. […]

EC50: 48 µM
SMILES: CCC(O)[C@@H]1C[C@@H](OC(C)=O)[C@H](n2c(=O)sc3c(=O)[nH]c(N)nc32)O1 (single isomer, unassigned)
